Patent US6924400B2, “Triaromatic vitamin D analogues” (Galderma Research & Development, SNC, priority 2001, dated 2005)

Tests used:
HL60 cells = experiment: Activity on the differentiation of HL60 cells (NBT reduction); type: cell-based; conditions: for AC50: Homo sapiens, HL-60, 96 h, HL60 cells, culturing for 4 days, NBT-positive cells counted; for differentiation-inducing activity on HL60 cells compared with calcitriol: comparison in words
Text: The biological properties analogous to vitamin D may also be measured by means of the capacity of the product to induce the differentiation of promyelocytic leukemia cells HL60. The protocol and also the results obtained with the compounds according to the invention are described in Example 8 of the present patent application.
Calcitrol induces the differentiation of promyelocytic leukaemia cells (HL60) into monocytes/macrophages. This differentiation-inductive effect is a well-characterized marker of cellular vitamin D. One of the most important antimicrobial products of macrophages is hydrogen peroxide, which may be analysed experimentally by the reduction of NBT (Nitroblue Tetrazolium).
The method used is as follows: the HL60 cells are inoculated into 6-well plates and then treated immediately with a test compound. After culturing for 4 days, the cells are incubated with phorbol TPA ester and NBT for a short period and the differentiated cells, i.e., the ones that are positive to NBT, are counted.

[1] = tested on: normal human keratinocytes; experiment: Activity on the proliferation of human keratinocytes (BrdU incorporation); conditions: for IC50: Homo sapiens, Keratinocyte, 120 h, read-out: IC50-proliferation of KHNs
Description: The biological properties analogous to vitamin D may also be measured by means of the capacity of the product to inhibit the proliferation of normal human keratinocytes (NHK in culture). The product is added to NHKs cultured under conditions promoting the proliferative state. The product is left in contact with the cells for five days. The number of proliferative cells is measured by incorporation of bromodeoxyuridine (BRdU) into the DNA.
The method used is as follows: normal human keratinocytes are inoculated at low density into a 24-well plate. After 4 hours, the test compounds are added to the culture medium. After culturing for 5 days, the proliferation of the keratinocytes is determined by incorporating 5-bromo-2′-deoxyuridine (BrdU) into the DNA. The amount of BrdU incorporated is then measured using the ELISA test (Enzyme Linked ImmunoSorbent Assay, sold by Roche Molecular Biochemicals).

human VDR receptor = target: T1, human VDR receptor (Homo sapiens, UniProt P11473); experiment: VDR agonist activity, HeLa cotransfection with reporter plasmid p240Hase-CAT; type: cell-based; conditions: for AC50: HeLa cells, treatment for 18 hours, CAT activity by ELISA; for VDR agonist activity compared with calcitriol: comparison in words
T1 construct: expressed in transfected cells; host or cells: HeLa
T1 sequence (P11473 1-427): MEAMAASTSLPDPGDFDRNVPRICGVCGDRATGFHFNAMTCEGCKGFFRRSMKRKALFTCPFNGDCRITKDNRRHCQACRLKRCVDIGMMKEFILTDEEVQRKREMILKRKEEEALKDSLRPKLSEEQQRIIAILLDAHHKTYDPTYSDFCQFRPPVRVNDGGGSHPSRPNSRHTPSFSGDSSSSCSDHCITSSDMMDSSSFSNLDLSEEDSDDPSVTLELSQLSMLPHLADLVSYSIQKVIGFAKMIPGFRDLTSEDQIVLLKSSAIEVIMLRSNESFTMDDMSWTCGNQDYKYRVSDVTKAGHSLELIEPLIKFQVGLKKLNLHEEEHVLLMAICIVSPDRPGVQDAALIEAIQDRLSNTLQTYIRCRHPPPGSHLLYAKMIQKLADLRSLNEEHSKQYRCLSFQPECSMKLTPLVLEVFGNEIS
Description: By way of example, the VDR agonist activity may be tested on the HeLa cell line by cotransfection of an expression vector of the human VDR receptor and of the reporter plasmid p240Hase-CAT. The agonist activity may also be characterized in this cotransfection system, by determining the dose required to achieve 50% of the maximum activity of the product (AC50).
18 hours after cotransfection, the test compound is added to the medium. After treatment for 18 hours, the CAT activity of the cell lysates is assayed by means of an ELISA test (Enzyme Linked ImmunoSorbent Assay, sold by Roche Molecular Biochemicals).

AC50 (human VDR receptor) | SMILES | AC50 (HL60 cells) | IC50 [1] | differentiation-inducing activity on HL60 cells compared with calcitriol (HL60 cells) | activity on keratinocyte proliferation relative to calcitriol ([1]; fold greater than calcitriol) | VDR agonist activity compared with calcitriol (human VDR receptor) | inhibitory activity on keratinocyte proliferation compared with calcitriol ([1]; comparison in words)
3.2 nM | CCc1ccc(OCc2ccc(CO)c(CO)c2)cc1-c1ccc(C(O)(CC)CC)cc1C(C)C [Example 4, {4-[6-Ethyl-4′-(1-ethyl-1-hydroxypropyl)-2′-isopropylbiphenyl-3-yloxymethyl]-2-hydroxymethylphenyl}methanol] | 27 nM | 26 nM | – | – | – | –
2.2 nM | CCCc1cc(C(O)(CC)CC)ccc1-c1cc(OCc2ccc(CO)c(CO)c2)ccc1CC [Example 3, {4-[6-Ethyl-4′-(1-ethyl-1-hydroxypropyl)-2′-propylbiphenyl-3-yloxymethyl]-2-hydroxymethylphenyl}methanol] | 11 nM | 15 nM | – | – | – | –
0.6 nM | CCCc1cc(C(O)(CC)CC)ccc1-c1cc(CCc2ccc(CO)c(CO)c2)ccc1C [Example 5, (4-{2-[4′-(1-Ethyl-1-hydroxypropyl)-6-methyl-2′-propylbiphenyl-3-yl]ethyl}-2-hydroxymethylphenyl)methanol] | 1.8 nM | 2.4 nM | markedly superior activity | more than 5 times | superior activity | –
50 nM | CCC(O)(CC)c1ccc(-c2cc(NCc3ccc(CO)c(CO)c3)ccc2C)c(C)c1 [Example 6, (4-{[4′-(1-Ethyl-1-hydroxypropyl)-6,2′-dimethylbiphenyl-3-ylamino]-methyl}-2-hydroxymethylphenyl)methanol] | 147 nM | 122 nM | less good activity compared with calcitriol | – | less good activity compared with calcitriol | less good activity compared with calcitriol

Second part, the compound before the results:

SMILES | AC50 (human VDR receptor) | AC50 (HL60 cells) | IC50 [1] | differentiation-inducing activity on HL60 cells compared with calcitriol (HL60 cells) | activity on keratinocyte proliferation relative to calcitriol ([1]; fold greater than calcitriol) | VDR agonist activity compared with calcitriol (human VDR receptor) | inhibitory activity on keratinocyte proliferation compared with calcitriol ([1]; comparison in words)
C=C1/C(=C\C=C2/CCC[C@]3(C)[C@@H]([C@H](C)CCCC(C)(C)O)CC[C@@H]23)C[C@@H](O)C[C@@H]1O [Calcitriol, 1,25-dihydroxyvitamin D3, reference compound] | – | 10.7 nM | – | – | – | – | –
CCc1cc(C(O)(CC)CC)ccc1-c1cc(OCc2ccc(CO)c(CO)c2)ccc1CC [Example 2, {5-[6,2′-Diethyl-4′-(1-ethyl-1-hydroxypropyl)biphenyl-3-yloxymethyl]-2-hydroxymethylphenyl}methanol] | 4.1 nM | 15 nM | 53 nM | – | – | – | –
CCCc1cc(C(O)(CC)CC)ccc1-c1cc(OCc2ccc(CO)c(CO)c2)ccc1C [Example 1, {5-[4′-(1-Ethyl-1-hydroxypropyl)-6-methyl-2′-propylbiphenyl-3-yloxy-methyl]-2-hydroxymethylphenyl}methanol] | 2.4 nM | 7.6 nM | 16 nM | – | – | – | –
